Data on 1 substance can be found in US9259432B1, “Composition and methods for targeted delivery of a therapeutic compound to the brain or spinal cord of a subject for treatment of neurodegenerative diseases” (Parminder J. S. Vig, priority 2011, dated 2016).

For one assay, the system named is SHSY5Y cells. In words: 488-S100B uptake in SHSY5Y cells. Conditions: then 1 μM 488-S100B 3 hrs. The assay is classed as cell-based. Here is the method:
FIG. 14: (a) WT SHSY5Y cells were placed on chamber slides and pretreated with 50 μM Synb1-ELP-TRTK or Synb1-ELP-GGC for 1 hr at 37° C. Next, cells were washed then treated with 1 μM 488-S100B for 3 hrs followed by washing, fixation and DAPI staining. Shown is DAPI nuclear stain in blue and 488-S100B in green. Scale bar: 10 μm. (b) SHSY5Y cells were placed on 6-well plates and pretreated with 50 μM Synb1-ELP-TRTK12 or Synb1-ELP-GGC for 1 hr at 37° C. then treated with 1 μM 488-S100B for 3 hrs, then cells were removed and 488-S100B uptake was measured using flow cytometry. Data is shown as MEAN±STDEV of the % Uptake relative to the control. Statistics were taken using student's t-test. *P<0.05.
SHSY5Y cells (Invitrogen, Carlsbad, Calif., USA) were maintained in DMEM/F12 media (Fisher, Houston, Tex., USA) supplemented with 15% FBS, penicillin-streptomycin (Sigma), and grown in an incubator at 37° C. in the presence of 5% CO2. […] Next, cells were washed then treated with 1 μM 488-S100B for 3 hrs and S100B uptake was analyzed by Epi-fluorescence or by Beckman Cytometric FC 500 flow cytometer as previously described (Bidwell et al., 2009). For flow cytometry experiments, 488-S100B uptake was measured by quenching extracellular fluorescence by coating the cells with Trypan Blue (Fisher) as described previously (Bidwell et al., 2009). […]

The subject of assay [1] is differentiated GFP-ATXN1[82Q] SHSY5Y cells. In words: Oxyblot of S100B induced oxidized proteins. Conditions: 50 μM pretreatment 1 hr, then 5 μM S100B 2 hrs; oxidized protein/β-tubulin. The assay is classed as cell-based. Here is the method:
FIG. 16: (a) GFP-ATXN1[82Q] and (b) GFP-ATXN1[30Q] SHSY5Y stable cells were placed on 12-well plates and subjected to treatment with 25 nM TPA for 3 days to produce differentiated SHSY5Y cell lines. Next, the cells were pretreated with 50 μM Synb1-ELP-TRTK for 1 hr then treated with 5 μM S100B for 2 hrs or treated with 150 μM H2O2 for 2 hrs, where control cells were treated with serum free media for 3 hrs. Then the cells were lysed and analyzed with the Oxyblot kit and a β-tubulin antibody. Shown is the resulting oxyblot/western blot data. (c) Optical densities of the protein bands were taken using ImageJ software. Graphs shown the ratio of oxidized protein/β-tubulin protein normalized to the control. Statistics were taken using the student's t-test. * GFP-ATXN1[82Q]: S100B vs Synb1-ELP-TRTK+S100B, P<0.05. ψ GFP-ATXN1[82Q]: H2O2 vs GFP-ATXN1[30Q]: H2O2, P<0.05.
GFP-ATXN1[82Q] or GFP-ATXN1[30Q] stable cells were placed on 12-well plates at a concentration of 60,000 cells per well. Cells were treated with 25 nM TPA for 3 days to produce differentiated SHSY5Y cell lines. […] Cell lysates were analyzed with the Oxyblot kit according to manufacturer's protocol ([…]) and with a β-tubulin antibody (Sigma), where 5 μgs of protein was loaded in each well of 4-20% acrylamide gel (Bio-Rad Laboratories, Hercules, Calif., USA). […]

For the substance “Synb1-ELP-TRTK: thermally responsive S100B inhibitory polypeptide: Synb1 cell penetrating peptide, elastin-like polypeptide (ELP) and TRTK12 peptide fused”, the “488-S100B uptake, epi-fluorescence” value in the assay on SHSY5Y cells (50 μM pretreatment 1 hr at 37° C.) was “reduced 488-S100B cellular uptake”. For the same substance, in the assay on SHSY5Y cells (50 μM pretreatment 1 hr, vs Control and Synb1-ELP-GGC pretreated cells), the “488-S100B uptake, flow cytometry” value is recorded as “significantly reduced 488-S100B uptake”. The “S100B's impact on the level of oxidized proteins” value in assay [1] was “significantly blocked”.
